Assay results taken from PubChem BioAssay AID2060899 (Molecular Pharmacology Branch, DTP, NCI, 2025).

System: 565726-208-R1-J5-PDC complex spheroids, growth inhibition
Assay: Anticancer human tumor 565726-208-R1-J5-PDC patient-derived pancreatic adenocarcinoma cell line growth inhibition [RAS]
Details: for IC50: curve of first compound; for viability, T/C: stronger effect = lower value; active = viability on the fitted dose curve at most 10% of control; inactive = the rest
In short: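 Multi-cell-type spheroids: tumor cells plus HUVEC endothelial cells and mesenchymal stem cells. RAS-pathway inhibitors were combined with targeted agents, each dosed in half-log steps down from clinical Cmax, or from 10 microM when Cmax was unknown.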

[1] = second compound 0.00316 µM, first compound 0.0316 µM
[2] = second compound 0.00316 µM, first compound 0.1 µM
[3] = second compound 0.00316 µM, first compound 0.316 µM
[4] = second compound 0.00316 µM, first compound 1 µM
[5] = second compound 0.00316 µM, first compound 3.16 µM
[6] = second compound 0.00316 µM, first compound 10 µM
[7] = second compound 0.01 µM, first compound 0.0316 µM
[8] = second compound 0.01 µM, first compound 0.1 µM
[9] = second compound 0.01 µM, first compound 0.316 µM
[10] = second compound 0.01 µM, first compound 1 µM
[11] = second compound 0.01 µM, first compound 3.16 µM
[12] = second compound 0.01 µM, first compound 10 µM
[13] = second compound 0.0316 µM, first compound 0.0316 µM
[14] = second compound 0.0316 µM, first compound 0.1 µM
[15] = second compound 0.0316 µM, first compound 0.316 µM
[16] = second compound 0.0316 µM, first compound 1 µM
[17] = second compound 0.0316 µM, first compound 3.16 µM
[18] = second compound 0.0316 µM, first compound 10 µM
[19] = second compound 0.1 µM, first compound 0.0316 µM
[20] = second compound 0.1 µM, first compound 0.1 µM
[21] = second compound 0.1 µM, first compound 0.316 µM
[22] = second compound 0.1 µM, first compound 1 µM
[23] = second compound 0.1 µM, first compound 3.16 µM
[24] = second compound 0.1 µM, first compound 10 µM
[25] = second compound 0.316 µM, first compound 0.0316 µM
[26] = second compound 0.316 µM, first compound 0.1 µM
[27] = second compound 0.316 µM, first compound 0.316 µM
[28] = second compound 0.316 µM, first compound 1 µM
[29] = second compound 0.316 µM, first compound 3.16 µM
[30] = second compound 0.316 µM, first compound 10 µM
[31] = second compound 1 µM, first compound 0.0316 µM
[32] = second compound 1 µM, first compound 0.1 µM
[33] = second compound 1 µM, first compound 0.316 µM
[34] = second compound 1 µM, first compound 1 µM
[35] = second compound 1 µM, first compound 3.16 µM
[36] = second compound 1 µM, first compound 10 µM
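Note: spheroids exposed to compounds for seven days before readout.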
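Throughout, for viability, T/C: 100% = DMSO vehicle control viability.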

CC(=O)OC12COC1CC(O)C1(C)C(=O)C(O)C3=C(C)C(OC(=O)C(O)C(NC(=O)OC(C)(C)C)c4ccccc4)CC(O)(C(OC(=O)c4ccccc4)C21)C3(C)C (centres undefined) + C=CC(=O)N1CCN(c2nc(OCC3CCCN3C)nc3c(F)c(-c4nc(N)cc(C)c4C(F)(F)F)c(Cl)cc23)C(C)C1
< 0.0316 µM: IC50 (second compound 0.00316 µM) | IC50 (second compound 0.01 µM) | IC50 (second compound 0.0316 µM) | IC50 (second compound 0.1 µM) | IC50 (second compound 0.316 µM) | IC50 (second compound 1 µM)
inactive: viability, T/C [1] 22.4% | viability, T/C [2] 20.6% | viability, T/C [3] 22.6% | viability, T/C [4] 19.4% | viability, T/C [5] 30% | viability, T/C [6] 37.1% | viability, T/C [7] 25% | viability, T/C [8] 21.8% | viability, T/C [9] 21.1% | viability, T/C [10] 23.5% | viability, T/C [11] 32.6% | viability, T/C [12] 47.7% | viability, T/C [13] 31.6% | viability, T/C [14] 26.6% | viability, T/C [15] 24.9% | viability, T/C [16] 21% | viability, T/C [17] 29.5% | viability, T/C [18] 44.8% | viability, T/C [19] 26% | viability, T/C [20] 23% | viability, T/C [21] 26% | viability, T/C [22] 19% | viability, T/C [23] 27.7% | viability, T/C [24] 42.8% | viability, T/C [25] 21.1% | viability, T/C [26] 26.6% | viability, T/C [27] 22.4% | viability, T/C [28] 24.9% | viability, T/C [29] 28% | viability, T/C [30] 45.9% | viability, T/C [31] 34.8% | viability, T/C [32] 24.1% | viability, T/C [33] 22.1% | viability, T/C [34] 26.4% | viability, T/C [35] 34.4% | viability, T/C [36] 50.1%

CC(Nc1ccc2c(c1)OCCn1cc(N3C(=O)OCC3C(F)F)nc1-2)C(N)=O (centres undefined) + C=CC(=O)N1CCN(c2nc(OCC3CCCN3C)nc3c(F)c(-c4nc(N)cc(C)c4C(F)(F)F)c(Cl)cc23)C(C)C1
inactive: viability, T/C [1] 87.9% | viability, T/C [2] 124% | viability, T/C [3] 93.7% | viability, T/C [4] 67.5% | viability, T/C [5] 92.8% | viability, T/C [6] 86.4% | viability, T/C [7] 95.4% | viability, T/C [8] 139% | viability, T/C [9] 79.8% | viability, T/C [10] 66% | viability, T/C [11] 100% | viability, T/C [12] 89% | viability, T/C [13] 121% | viability, T/C [14] 128% | viability, T/C [15] 78.6% | viability, T/C [16] 67.9% | viability, T/C [17] 104% | viability, T/C [18] 96.2% | viability, T/C [19] 149% | viability, T/C [20] 130% | viability, T/C [21] 69.4% | viability, T/C [22] 66.8% | viability, T/C [23] 62.7% | viability, T/C [24] 85.1% | viability, T/C [25] 141% | viability, T/C [26] 139% | viability, T/C [27] 86.3% | viability, T/C [28] 79.8% | viability, T/C [29] 66.3% | viability, T/C [30] 102% | viability, T/C [31] 126% | viability, T/C [32] 147% | viability, T/C [33] 90.2% | viability, T/C [34] 64.9% | viability, T/C [35] 85.3% | viability, T/C [36] 89.8%
> 10 µM: IC50 (second compound 0.00316 µM) | IC50 (second compound 0.01 µM) | IC50 (second compound 0.0316 µM) | IC50 (second compound 0.1 µM) | IC50 (second compound 0.316 µM) | IC50 (second compound 1 µM)
